Assay results from article PMC6778101 (Nature Communications, 2019).
Where two headings read alike, the source gives them in different places.

Columns and labels:
[1] = tested on: E. coli K-12 BW25113 bearing the metagenomic plasmid library; assay: Functional metagenomic screen of a soil library, gradient plate selection; assay type: cell-based, Escherichia coli; details: soil metagenomic library, 1.5–5 kb fragments, gradient plate, 30 °C, 24 h
E. coli K-12 BW25113 = assay: microbe, parasite or virus in culture; assay type: cell-based, Escherichia coli
Description: Unless otherwise indicated, Minimal Salt (MS) medium was used in all experiments, including the laboratory evolution experiments. In line with previous, methodologically relevant laboratory evolution studies, the physical conditions (including the medium) were the same during the course of laboratory evolution and all forthcoming assays on the resulting resistant lines (e.g. MIC measurements). We previously optimized this medium for studying AMPs (1 g L^−1 (NH4)2SO4, 3 g L^−1 KH2PO4 and 7 g L^−1 K2HPO4 supplemented with 0.1 mM MgSO4, 0.54 µg mL^−1 FeCl3, 1 µg mL^−1 thiamine hydrochloride, 0.2% Casamino acids and 0.2% glucose)[19]. This medium is highly controlled and provides a reproducible environment for experimental evolution experiments. All components were obtained from Sigma-Aldrich.
(§1) MICs were determined using a standard serial broth dilution technique. Briefly, 11-step serial dilutions were prepared in 96-well microtiter plates with three replicates per strain and antimicrobial compound. Each experiment was repeated at least twice. 5 × 10^5 cells/mL were inoculated into each well, and the plates were incubated at 30 °C in case of E. coli K-12 BW25113, and its antibiotic and AMP-adapted lines, or 37 °C in case of the other bacterial species. […] Cell growth was monitored by measuring the optical density (OD600 value, Biotek Synergy 2 microplate reader was used for this purpose). […] Relative MIC was calculated as follows: MICrelative = MICevolved/MICcontrol.

[2] = tested on: E. coli K-12 BW25113 carrying ASKA plasmids; assay: microbe, parasite or virus in culture; assay type: cell-based, Escherichia coli; details: for MIC: Escherichia coli; for MIC / MIC value of E. coli K-12 BW25113 carrying the empty plasmid of the ASKA library / MIC value of E. coli K-12 BW25113 carrying the pooled plasmids of the ASKA library: MS medium + 10 µg mL−1 CHL + 500 µM IPTG, 5 × 10^5 cells, 16–18 h, 37 °C
Description: Bacterial gene amplification generates extensive genetic variation that can provide drug resistance[37],[38]. As gene amplification events tend to be genetically unstable and reduce bacterial fitness, they are transient in nature. Using the ASKA library, which comprises each E. coli ORF cloned into an expression vector[40], we have conducted a global survey to evaluate whether artificially amplified genes provide resistance to any of the 14 AMPs and 11 antibiotics tested. As chloramphenicol (CHL) was used as a selection marker for the ASKA plasmid, this antibiotic was not tested in this screen. E. coli K-12 BW25113 cells were transformed with the pooled plasmids of the ASKA library, and the genetically mixed populations were exposed to increasing levels of AMP or antibiotic stresses, respectively. In all cases, the employed AMP or antibiotic dosages were above the MIC of the wild type. For each drug, we identified the MIC provided in the pooled ASKA plasmid library, and compared it to the MIC of the wild-type strain carrying the empty ASKA plasmid.
The ASKA library (a complete set of E. coli K-12 ORF archive) includes every E. coli ORF cloned into an expression vector (pCA24N)[65]. Prior to screening, the ASKA plasmid collection was pooled and transformed into E. coli K-12 BW25113 strain[66]. The plasmid pool was created by pooling an equal aliquot of cells, each carrying different members of the ASKA library, followed by plasmid miniprep. Next, the plasmid pool was electroporated into E. coli K-12 BW25113 competent cells. […] For the MICs measurements 500 000 cells were inoculated in each well which represents ~100 times coverage of each library member. […] Prior to the measurements the cell population containing the pooled overexpression library or the control strain containing the empty vector were grown in three replicates in LB medium supplemented with 20 µg/mL CHL. As the culture reached high density (i.e., OD600 > 0.8), expression of the plasmid was induced by 50 µM IPTG for 1 h. Following induction, 5 × 10^5 bacterial cells were inoculated in three replicates into each well of the 96-well plate and incubated for 16–18 h at 37 °C. Following incubation the MIC values were determined by measuring optical densities in a plate reader (Biotek Synergy).

[3] = tested on: E. coli K-12 BW25113 carrying single mutations; assay: MIC change in single-mutation strains (basS L194R, mlaD a342del, waaY M1†); assay type: cell-based, Escherichia coli; details: mutations inserted individually into E. coli K-12 BW25113
A. baumannii ATCC 17978 = assay type: cell-based, Acinetobacter baumannii; details: starting strain; broth dilution, MS medium, 37 °C, 18 h
Description: (§2) Unless otherwise indicated, we used E. coli K-12 BW25113 in all high-throughput experiments. To investigate the impact of mutation rate on evolution of AMP resistance, we initiated laboratory evolution with a mutator strain E. coli mutD5 that carries mutations in the dnaQ gene (L73W and A164V).
(§3) MICs were determined using a standard serial broth dilution technique. Briefly, 11-step serial dilutions were prepared in 96-well microtiter plates with three replicates per strain and antimicrobial compound. Each experiment was repeated at least twice. 5 × 10^5 cells/mL were inoculated into each well, and the plates were incubated at 30 °C in case of E. coli K-12 BW25113, and its antibiotic and AMP-adapted lines, or 37 °C in case of the other bacterial species. Plates were shaken at 300 r.p.m. during incubation for 24 and 18 h, respectively. Cell growth was monitored by measuring the optical density (OD600 value, Biotek Synergy 2 microplate reader was used for this purpose). […] Relative MIC was calculated as follows: MICrelative = MICevolved/MICcontrol.

S. enterica LT2 = assay type: cell-based, Salmonella enterica subsp. enterica serovar Typhimurium; details: starting strain; broth dilution, MS medium, 37 °C, 18 h
Description: as §2, §3

K. pneumoniae ATCC 10031 = assay type: cell-based, Klebsiella pneumoniae; details: starting strain; broth dilution, MS medium, 37 °C, 18 h
Description: as §2, §3

E. coli ATCC 25922 = assay type: cell-based, Escherichia coli; details: starting strain; broth dilution, MS medium, 37 °C, 18 h
Description: as §2, §3

E.coli K-12 BW25113 = assay type: cell-based, Escherichia coli; details: for MIC (freshly prepared AMP): plates inoculated immediately; for MIC (pre-incubated AMP): plates pre-incubated 72 hours before inoculation
Description: as §3
Supplementary Table 7- Effect of incubation time on the minimum inhibitory concentration (MIC) of AMPs. We tested whether the prolonged incubation time can affect the MIC of AMPs. To test this, two sets of AMP containing MIC plates were prepared in parallel. The first set was immediately inoculated with E.coli K-12 BW25113, while the second set was pre-incubated 72 hours before inoculation with the […]
observed in the MIC between freshly prepared and pre-incubated plates. […]

[4] = tested on: E. coli ATCC 25922, S. enterica LT2, K. pneumoniae ATCC 10031, A. baumannii ATCC 17978; assay: Laboratory evolution in pathogenic bacteria, statements for all four pathogens together; assay type: cell-based
Description: The tested pathogens initially sensitive to the AMPs and the antibiotics included Escherichia coli (ATCC® 25922™) (abbreviated as E. coli ATCC 25922), Salmonella enterica subsp. enterica serovar Typhimurium LT2 (abbreviated as S. enterica LT2), Klebsiella pneumoniae subsp. pneumoniae (Schroeter) Trevisan (ATCC® 10031™) (abbreviated as K. pneumoniae ATCC 10031) and Acinetobacter baumannii Bouvet and Grimont (ATCC® 17978™) (abbreviated as A. baumannii ATCC 17978).
The evolutionary protocol was designed to avoid population extinction and to ensure that populations with the highest level of resistance were propagated further. Starting with a subinhibitory drug concentration (Supplementary Data 8), resulting in ~50% growth inhibition, 10 parallel populations per drug were allowed to grow in Minimal Salts medium for 72 h and 300 r.p.m. E. coli K-12 BW25113 and E. coli mutD5 populations were incubated at 30 °C, while E. coli ATCC 25922, S. enterica LT2, K. pneumonia ATCC 10031, and A. baumannii ATCC 17978 were incubated at 37 °C. […] Prior to each transfer, cell growth was monitored by measuring the optical density at 600 nm (OD600 value, Biotek Synergy 2 microplate reader). Only populations with the highest drug concentration (and reaching OD600 > 0.2) were selected for further evolution. A chess-board layout was used on the plate to monitor potential cross-contamination events. […] E. coli mutD5 was adapted to TPII, also in 10 parallel evolving populations.
as §1, with “twice.” for “twice. 5 × 10^5 cells/mL were inoculated into each well, and the plates were incubated at 30 °C in case of E. coli K-12 BW25113, and its antibiotic and AMP-adapted lines, or 37 °C in case of the other bacterial species.”

[5] = BW25113, Replicate 1, read-out: MIC value of E. coli K-12 BW25113 carrying the empty plasmid of the ASKA library
[6] = BW25113, Replicate 1, read-out: MIC value of E. coli K-12 BW25113 carrying the pooled plasmids of the ASKA library
[7] = BW25113, Replicate 2, read-out: MIC value of E. coli K-12 BW25113 carrying the empty plasmid of the ASKA library
[8] = BW25113, Replicate 2, read-out: MIC value of E. coli K-12 BW25113 carrying the pooled plasmids of the ASKA library
[9] = BW25113, Replicate 3, read-out: MIC value of E. coli K-12 BW25113 carrying the empty plasmid of the ASKA library
[10] = BW25113, Replicate 3, read-out: MIC value of E. coli K-12 BW25113 carrying the pooled plasmids of the ASKA library
[11] = Escherichia coli, BW25113, 24 h, read-out: MIC
[12] = starting wild-type strain of the evolution experiment, broth dilution, MS medium, 5 × 10^5 cells/mL, 30 °C, 24 h, MIC = OD600 < 0.05
[13] = time allowed for bacterial growth 24 hours
[14] = time allowed for bacterial growth 48 hours
[15] = time allowed for bacterial growth 72 hours

Molecule	Number of resistant contig [1]	MIC [2, 5] [µg/mL]	MIC [2, 6] [µg/mL]	MIC [2, 7] [µg/mL]	MIC [2, 8] [µg/mL]	MIC [2, 9] [µg/mL]	MIC [2, 10] [µg/mL]	MIC (E. coli K-12 BW25113; [11]) [µg/mL]	MIC (E. coli K-12 BW25113; [12]) [µg/mL]	MIC value of E. coli K-12 BW25113 carrying the empty plasmid of the ASKA library ([2]; Replicate 1) [µg/mL]	MIC value of E. coli K-12 BW25113 carrying the pooled plasmids of the ASKA library ([2]; Replicate 1) [µg/mL]	MIC value of E. coli K-12 BW25113 carrying the empty plasmid of the ASKA library ([2]; Replicate 2) [µg/mL]	MIC value of E. coli K-12 BW25113 carrying the pooled plasmids of the ASKA library ([2]; Replicate 2) [µg/mL]	MIC value of E. coli K-12 BW25113 carrying the empty plasmid of the ASKA library ([2]; Replicate 3) [µg/mL]	MIC value of E. coli K-12 BW25113 carrying the pooled plasmids of the ASKA library ([2]; Replicate 3) [µg/mL]	also measured
COc1cc(Cc2cnc(N)nc2N)cc(OC)c1OC [TRM, Trimethoprim]	11	2	128	2	64	2	64	–	–	–	–	–	–	–	–	MIC (E. coli K-12 BW25113; Escherichia coli, BW25113, 24 h): 5.2 µg/mL; increment in resistance level by the pooled ASKA library [2]: 32 fold
NC[C@H]1O[C@H](O[C@H]2[C@H](O)[C@@H](O[C@H]3O[C@H](CO)[C@@H](O)[C@H](N)[C@H]3O)[C@H](N)C[C@@H]2N)[C@H](N)C[C@@H]1O [TOB, Tobramycin]	13	1.49	2.15	1.24	2.58	1.49	2.58	3.4	–	–	–	–	–	–	–	–
GIINTLQKYYRVRGGRAVLSLPKEEQIGKSTRGRKRRKK [HBD3, Human beta-defensin-3, clinically relevant antimicrobial peptide with human origin]	–	–	–	–	–	–	–	–	1500	195.36	405.09	195.36	337.58	281.31	281.31	resistance conferred by single mutations basS L194R, mlaD a342del, waaY M1† (in words) [3]: conferred resistance
O=C(N[C@H](CO)[C@H](O)c1ccc([N+](=O)[O-])cc1)C(Cl)Cl [CHL, Chloramphenicol]	7	–	–	–	–	–	–	6.9	–	–	–	–	–	–	–	–
KTKKKFLKKT [PXB, Polymyxin B, AMP used as a last-resort drug in the treatment of multidrug-resistant Gram-negative bacterial infections; from Sigma-Aldrich]	–	–	–	–	–	–	–	–	2.5	3.18	3.18	3.18	3.18	3.18	3.18	MIC (A. baumannii ATCC 17978): 2 µg/mL; MIC (S. enterica LT2): 8 µg/mL; MIC (K. pneumoniae ATCC 10031): 2 µg/mL; MIC (E. coli ATCC 25922): 6 µg/mL; MIC (freshly prepared AMP) (E.coli K-12 BW25113; [13]): 4.2 µg/mL; MIC (freshly prepared AMP) (E.coli K-12 BW25113; [14]): 4.2 µg/mL; MIC (freshly prepared AMP) (E.coli K-12 BW25113; [15]): 4.2 µg/mL; MIC (pre-incubated AMP) (E.coli K-12 BW25113; [13]): 5 µg/mL; MIC (pre-incubated AMP) (E.coli K-12 BW25113; [14]): 5 µg/mL; MIC (pre-incubated AMP) (E.coli K-12 BW25113; [15]): 5 µg/mL; resistance after laboratory evolution in pathogens (in words) ([4]; all four pathogenic species): a high level of PXB-resistance has emerged in all pathogens studied; increment of resistance level compared to the corresponding wild-type strain ([4]; certain lines, highest value over the four pathogens): ≤ 20,000 times
